Assay results as given in ChEMBL document CHEMBL3045023, “Design, synthesis, and antiviral activity evaluation of phenanthrene-based antofine derivatives” (2012).

Test system: Tobacco mosaic virus
Assay: Antiviral activity against Tobacco mosaic virus (TMV) assessed as inhibition of viral growth at 1 ug/mL
Format: functional
Details: read-out: GI

SMILES | inhibition of growth at 1 µg/mL
COc1cc2c3c(c4ccc(O)cc4c2cc1OC)CN1CCC[C@@H]1C3 | 70%
COc1ccc2c3c(c4cc(OC)c(OC)cc4c2c1)C[C@H]1CCCN1C3 [(-)-ANTOFINE] | 63%
